Source: a melting point compilation (Tetko et al.; mined from patent text by program, amines drawn as free bases though some values may be those of a salt)

Row | Compound | melting point [°C]
1 | CCOC(=O)C(O)C(Oc1ccccc1[N+](=O)[O-])c1ccccc1 (configuration not stated) | 129 to 131
2 | CC(=O)c1ccc(Cl)c(S(=O)(=O)N(C)C)c1 | 108
3 | c1ccc(CC2CCN2C(c2ccccc2)c2ccccc2)cc1 (configuration not stated) | 87.5
4 | O=C1CCC2C=C(c3cccnc3)C=C(F)C2N1 (configuration not stated) | 203
5 | O=C(O)c1cc(Cl)c(F)c(F)c1F | 123 to 124
6 | Cn1c(-c2ccc3c(c2)C(C)(C)OC(=O)N3)ccc1[N+](=O)[O-] | 180 to 185
7 | CCCCCCCCCCCCS(=O)(=O)c1c(O)cc(C)oc1=O | 78 to 79
8 | COC(=O)C=CC(=O)N[C@@H](CO)c1ccccc1 | 75 to 77
9 | C=CC(C)(C)C(=O)COc1ccc(-c2ccccc2)cc1 | 42 to 44
10 | COc1ccc(-c2cnccn2)cc1 | 86 to 87
11 | Cc1cccc(-c2nc(-c3ccc(S(C)(=O)=O)cc3)sc2-c2ccnc(Sc3ccccc3)c2)c1 | 116 to 118
12 | COc1ccccc1NC(=O)Nc1ccc(CC(=O)O)cc1 | 165 to 168
13 | O=C1C2CCN(CC2)C1Cc1cccnc1 (configuration not stated) | 95
14 | Cc1ccc2c(c1)C(NC(=O)CCl)CC(C)(C)O2 (configuration not stated) | 147 to 148
15 | Cc1cc(C)cc(Sc2c(C(C)C)c(=O)[nH]c(=O)n2CC2=CCCC2CO)c1 (configuration not stated) | 66 to 68
16 | Cc1ccc(-c2ccc(-c3nnnn3CCCCCCc3cccnc3)cc2)cc1C | 101 to 103
17 | COC(=O)Cc1ccc(OCC(C)NCC(O)c2cccc(F)c2)cc1 (configuration not stated) | 52
18 | CCCCCCCOc1ccc(COc2ccc3c(c2)CC(CC(=O)O)C3OC)cc1 (configuration not stated) | 80 to 82
19 | O=S(=O)(Nc1ccc(Cl)cc1)C(Cl)=C(Cl)Cl | 73 to 76
20 | COc1cnccc1CCCOc1cccnc1Oc1cccc(Br)c1 | 134 to 136
21 | CC(C)(O)c1cc(OCc2ccccc2)cc(C(C)(C)O)c1 | 146 to 147

Row | Compound | melting point [°C]
22 | CC(COc1ccc(O)c(C(N)=O)c1)N(Cc1ccccc1)CC(O)COc1ccc(OCC(N)=O)cc1 (configuration not stated) | 145 to 149
23 | O=C(O)C1CSC(c2ccccc2OCCCCO[N+](=O)[O-])N1 (configuration not stated) | 108 to 110
24 | COc1ccc(CN(C)CCCOc2ccc(NC(=O)c3cccc4c(=O)c5ccccc5[nH]c34)cc2)cc1OC | 130
25 | O=C(OCC1OC(n2cnc3c(N(C(=O)c4ccccc4)C(=O)c4ccccc4)ncnc32)C(O)(C(=O)c2ccccc2)C1(O)C(=O)c1ccccc1)c1ccccc1 (configuration not stated) | 183 to 184
26 | CCCNC(=O)C1(CC=Cc2ccc([N+](=O)[O-])cc2)c2ccccc2-c2ccccc21 | 143 to 146
27 | COc1ccc(C(=O)C=Cc2cccc(N(C)C)c2)c(OC)c1OC | 87.2 to 87.9
28 | Cc1ccccc1Cc1cccnn1 | 88 to 89
29 | Cc1cn(-c2ccc3c(c2)c2ccccc2n3-c2ccccc2)c(-c2nc(C)cn2-c2ccc3c(c2)c2ccccc2n3-c2ccccc2)n1 | 245 to 253
30 | CC(C)(Cc1ccc(OCC(=O)O)cc1)NS(=O)(=O)c1ccc(Cl)cc1 | 177 to 178
31 | COc1ccc2c(c1)Cc1cc(CCC(C)=O)ccc1-2 | 100 to 101
32 | COc1ccc2c(=O)[nH]c(=O)[nH]c2c1OC | 314 to 316
33 | CC(=Nc1cc(C(F)(F)F)cc2nc(C)n(C(C)C)c12)c1ccccc1 | 164 to 166
34 | CN(Cc1ccccc1)C(=O)Nc1cc(C(C)(C)C)on1 | 107 to 108
35 | CC(=O)OCCn1ccc(=O)c(OCc2ccccc2)c1C(OC(C)=O)c1ccc(F)cc1 (configuration not stated) | 118 to 119
36 | COc1ccc2c(c1)OCC21C(=O)N(Cc2ccccn2)c2ccccc21 (configuration not stated) | 122 to 123
37 | CCOP(=O)(OCC)c1cc2cc(S(=O)(=O)Cl)c(Cl)cc2[nH]c1=O | 190 to 200
38 | COc1ccc([C@H]2C=CN(S(=O)(=O)c3ccc(OC)cc3)C(=O)[C@H]2CCC2C=CC=CC2=O)cc1 (some centres not stated) | 159 to 161
39 | CS(=O)(=O)c1ccc(-c2cnn(C3CCCCC3)c(=O)c2-c2ccc(F)cc2)cc1 | 169 to 171
40 | NC(=O)c1c(Cl)cc(Cl)c(OCC(=O)O)c1Cl | 261 to 262
41 | NS(=O)(=O)Oc1cccc(Cl)c1Cl | 116 to 117
42 | CCCCC(CC)C(=O)Nc1ccc2c(/C=C/C(=O)O)cn(Cc3ccc(C(=O)NS(=O)(=O)c4ccccc4)cc3OC)c2c1 (configuration not stated) | 200 to 201

Row | Compound | melting point [°C]
43 | CN1CCN(C2CCCc3nc4ccccc4c(N)c32)CC1 (configuration not stated) | 200 to 202
44 | O=C(Oc1ccccc1C(=O)NCCO[N+](=O)[O-])c1cccnc1 | 94 to 96
45 | C1=C(c2csc3ccccc23)CCN(Cc2ccccc2)C1 | 90
46 | Cc1cc(C(O)(C(F)(F)F)C(F)(F)F)cc(C)c1NCCN | 158 to 161
47 | Cc1ccccc1C(=O)Nc1ccc(C(=O)N2CCCC(=O)c3cc(Cl)ccc32)c(C)c1 | 134 to 142
48 | Nc1ccccc1NC(=O)c1ccc(CNc2c(NCc3cccnc3)c(=O)c2=O)cc1 | 230
49 | CCC(Br)C(=O)c1ccc(OC)c(OC(F)F)c1 (configuration not stated) | 105
50 | COc1cccc(CN(Cc2cccc(OC)c2)c2ccc(-c3ccccc3)cc2)c1 | 98 to 98.5
51 | Cc1nc2cc3c(cc2[nH]1)[nH]c(=O)n3C | 300
52 | CSc1[nH]cc(Cc2ccccc2)c1[N+](=O)[O-] | 190 to 192
53 | CCOCc1nc2cnc3cc(-c4ccccc4)ccc3c2n1CCOc1ccccc1 | 137 to 138
54 | CCOC(=O)CC1CN=C(c2cc3c(C)ccc(N(C)S(=O)(=O)c4cccs4)c3[nH]2)S1 (configuration not stated) | 109 to 110
55 | Cc1ccc2c(c1)C1=NNC(=O)CC1CS2 (configuration not stated) | 217 to 219
56 | CC(=O)C(C(N)=O)=C(C)[N+](=O)[O-] | 159 to 161
57 | N#CC1(c2ccc([N+](=O)[O-])cc2)CCCC1 | 76 to 77
58 | Cc1c(O)cccc1C(=O)N[C@@H](Cc1ccccc1)[C@H](O)C(=O)N1CSC(C)(C)[C@H]1C(=O)N[C@H]1CCSc2ccccc21 | 125 to 127
59 | O=CNCCCCCCO | 43.5 to 45
60 | Cc1ccc(NC(=O)c2ccc(CN(C)C)c(C(F)(F)F)c2)cc1-c1ccc2cnncc2c1 | 240 to 241
61 | O=C(Nc1cc(F)cc2c(Cl)ccnc12)c1c(Cl)cccc1Cl | 200 to 213
62 | CCC(c1ccc(Br)cc1)N(O)C(N)=O (configuration not stated) | 139 to 141
63 | CS(=O)(=O)COC(=O)c1oc(-c2ccccc2)cc(=O)c1Br | 192

Now from value to compound:

Row | melting point [°C] | Compound
64 | 155 to 156 | Cn1c(=O)ccc2cnc(NCCc3ccccn3)nc21
65 | 127 to 128 | CCCc1nc(N)nc(N2CCOCC2)n1
66 | 53 to 55 | CCCCNc1c(C(=O)OCC)c(C)nc(NCC)c1[N+](=O)[O-]
67 | 110 to 111 | COC(=O)c1ccc([C@H]2CC[C@H](C3OCCO3)CC2)cc1
68 | 88 to 90 | C(=C(c1ccccc1)c1ccccc1)C1CCN(CCCCCCc2cncnc2)CC1
69 | 69.6 to 70.5 | CCCCCc1cc2c(=O)oc(C(=O)OCC)nc2s1
70 | 101 to 103 | O=C1CCCN1CCCCCCN1CCCC1=O
71 | 85 to 86 | COc1cc(OC)nc(N=C=S)n1
72 | > 300 | Cn1c(=O)c2cnc(N)nc2n(C)c1=O
73 | 174 | COC(=O)c1ccccc1S(=O)(=O)Nn1c(C)nn(-c2nc(OC)cc(OC)n2)c1=O
74 | 208 to 210 | O=S1(=O)N=C(NC2CCN(Cc3ccccc3)C2)Nc2ccc(Cl)cc21 (configuration not stated)
75 | 56 to 57 | CCOC(=O)Cc1ccc2c(c1)CC(CC(=O)O)C2 (configuration not stated)
76 | 287 to 289 | CCC(CC)Sc1cc2c(cc1Cl)N=C(C(N)=O)NS2(=O)=O
77 | 211 to 212 | CN(c1cccc2cc(-c3ncc(CCc4nn[nH]n4)s3)[nH]c12)S(=O)(=O)c1cccs1
78 | 109 to 110 | Fc1ccc2c(c1)nc(/C=C/C1CCCCC1)n2-c1ccccn1
79 | 59 to 60 | CCc1cccc2c(C(=O)OC)cnnc12
80 | 65 to 70 | COc1ccc(CCCC2CCNCC2)cc1
81 | 201 to 202 | CCOC(=O)c1nnc2n1CC(=O)N(C)c1ccc(Cl)cc1-2
82 | 124 | O=C(c1cccnc1)c1cc(-c2ccncc2)c(N2CCOCC2)s1
83 | 70 to 71 | CC(C)COc1c(NCCCBr)c(=O)c1=O

Row | melting point [°C] | Compound
84 | 118 to 119 | CN1CC(c2nccc(CCc3ccccc3)n2)=C(O)C1=O
85 | 144 to 145 | CCCc1nn(C)c2c(=O)n(CCOc3ccc(CC(OCC)C(=O)O)cc3)c(CC)nc12 (single isomer, unassigned; (+))
86 | 84 | CCCc1cc(CCCCC(=O)O)ccc1OC
87 | 190 to 192 | CCOCCN(C)c1ccc(-c2ccc3c(c2)C=C(C(=O)Nc2ccc(CN(C)C4CCOCC4)cc2)CCS3(=O)=O)cc1
88 | 113 to 114 | CCn1nc(C(F)(F)F)c(CS(=O)(=O)C2=NOC(C)(CCl)C2)c1S(C)(=O)=O (configuration not stated)
89 | 133 to 135 | COC(=O)c1ccc(C(C(N)=O)C(C)c2cc(Cl)ccc2N2CCCC2)cc1 (configuration not stated)
90 | 186 to 188 | Fc1cccc(-c2nc3cc(Br)ccn3n2)c1
91 | 164 to 167 | CCOC(=O)/C=C/c1cnc(-c2ccc(OCc3ccccc3)c(C34CC5CC(CC(C5)C3)C4)c2)nc1
92 | 56 to 57 | CCCCc1c(C=O)ccc2cc(OC)ccc12
93 | 108 to 115 | CCCc1c(O)ccc2c1OC(C)(CCC(N)=O)CC2=O (configuration not stated)
94 | 121 to 123 | Cc1nn(C)c2ncc3c(c12)CC(C)CC3 (configuration not stated)
95 | 72 to 73 | CCCN(CCC)Cn1cnc2c1c(=O)n(C)c(=O)n2C
96 | 151 to 152 | COCCNc1nc2ccccc2n(-c2ccc(Cl)cc2)c1=O
97 | 182 to 184 | O=C(O)C(=O)c1ccc(OCC(=O)N2CCOCC2)cc1
98 | 155 to 156 | COC1(c2cc(F)cc(OCc3ccc4c(c3)C(=O)N(C)S4(=O)=O)c2)CCOCC1
99 | 107 to 108 | CCCN(CCC)C(=O)CNc1cc(C)nc(-c2ccccc2)n1
100 | 105 to 107 | O=C(Oc1ccccc1)N1CCC2(CC1)c1ccccc1Oc1ccccc12
101 | 143 to 145 | Cc1ccc(C2C(=O)CCCC2=O)c(C)c1
102 | 194 to 196 | Cc1cc(Nc2cncc(NC3CCCCC3)n2)n[nH]1
